Measured values taken from patent EP0975351B1, “TREATMENT OF MULTIPLE SCLEROSIS THROUGH INGESTION OF COPOLYMER-1” (YEDA RESEARCH AND DEVELOPMENT CO. LTD., priority 1997, dated 1998).

Legend:
[1] = tested on: spleen cell cultures derived from mice; test: Cytokine secretion assay of spleen cells from fed mice (ELISA); format: cell-based; conditions: versus PBS fed control
Protocol: Induction and Assessment of EAE - Mice were injected with 200 µg GPBP emulsified in an equal volume of complete Freund's adjuvant (CFA) containing 4 mg/ml mycobacterium tuberculosis (H37Ra) (Difco Lab, Detroit, Mich.). The emulsion at a total volume of 0.1 ml was injected into all four footpads. Immediately after and 24 hours later, pertussis toxin (250ng/mouse) (Sigma) was injected intravenously.
Induction of Oral Tolerance - Mice were fed with 250 µg GPBP or glatiramer acetate dissolved in phosphate buffered saline (PBS) on days -7, -5, -3, 0, 2, 4 and 6 by gastric intubation with an 18-gauge stainless steel feeding needle (Thomas). EAE was induced on day 0.
Cytokine Secretion Assay - Spleens were removed 10-11 days after EAE induction and cells of 3 mice from each group were pooled. Cells (5x10^6/ml) were cultured in duplicates in 24 well plate in RPMI 1640 supplemented with 10% FCS (Fetal Calf Serum) in the presence or absence of antigen (GPBP 100 Fg/ml). Supematants were harvested after 24-40 hr of culture. Quantitative ELISA for IL-2, IFN-γ, IL-4, IL-6 and IL-10 were performed using paired mAbs specific for the corresponding cytokines (Pharmingen, La Jolla, CA) according to the manufacturer's instructions.

[2] = tested on: EAE; test: Suppression of MSCH-induced EAE in mice by oral administration, dose response; format: in vivo, (SJL/JxBALB/c)F1 mice; conditions: days -7 to 6 (Figure 5)
Protocol: Animals were examined daily from day 10 post induction for signs of disease. EAE was scored as follows: 0-no disease, 1-limp tail, 2-hind limb paralysis, 3-paralysis of all four limbs, 4-moribund condition, 5-death.
Induction of EAE - (SJL/xBALB/c)F1 mice were injected in all four footpads with 2mg mouse spinal cord homogenated (MSCH) emulsified in 1:1 ratio in CFA containing 1 mg/ml H37Ra (Difco Lab, Detroit, Mich). Pertussis toxin (250 ng/mouse, Sigma) was twice injected intravenously, once immediately after and again 48 hours later.
(SJL/JxBALB/c)F1 mice were fed 7 times with 0.1, 0.25 or 0.5 mg glatiramer acetate on days -7; -5; -3; 0; 2; 4 and 6 by gastric intubation. EAE was induced on day 0 by the injection of MSCH.

[3] = tested on: T-cell line derived from spleens of glatiramer acetate fed rats; test: Cytokine assay of T-cell line from spleens of fed rats (ELISA); format: cell-based; conditions: rat line cultured with glatiramer acetate as antigen (Figure 6)
Protocol: Isolation of glatiramer acetate specific T cell lines - Lewis rats were fed 5 times with 1 mg glatiramer acetate and (SJUJ x BALB/c)F, mice 7 times with 250 µg glatiramer acetate, at intervals of 2-3 days. Four to twelve days after the last feeding animals were sacrificed and their spleens removed.
Spleen cells of 3 animals were pooled and incubated (50 x 10^6/plate) with glatiramer acetate (500 µg) in medium containing 1 % autologous serum for 4 days. Every 14-21 days cells (4-6 x 10^6/plate) were restimulated by 3 days exposure to copolymer-1 (500 µg) presented on syngeneic irradiated (3000 rad) rat thymocytes (100 x 10^6/plate) or mouse splenocytes (50 x 10^6/plate). Stimulation was followed by propagation in 10% supernatant of Con A activated normal mouse spleen cells as T cell growth factor (TCGF).
Cytokine Assay - T cells of rat line (0.5 x 10^6/ml) were incubated with irradiated thymocytes (10 x 10^6) with or without the indicated antigen (50µg glatiramer acetate; 5µg Con A). Cells were cultured for 24 hours in RPMI 1640 supplemented with 10% FCS for IL-2, TNFα, IL-4 and IL-10-measurements and in serum free medium - DCCM-1 (Biological Industries, Kibbutz Beit Haemek, Israel) for 72 hours for TGFβ measurement.
Cytokine levels in supernatants were measured in a quantitative ELISA using pairs of monoclonal antibodies specific for the corresponding cytokines.

[4] = tested on: PBL; test: Flow cytometry of peripheral blood lymphocytes (PBL); format: in vivo, Rhesus Monkeys; set-up: CD4+ / CD8+ / CD4+ CD45RA+ / CD8+ CD45RA+: unit not given here; conditions: for Ratio: CD4+/CD8+
Protocol: 3 Rhesus monkeys were treated as follows: One monkey served as control and was fed with placebo capsules (containing 5mg glucose only). The second and third monkeys were fed with glatiramer acetate containing capsules at a dose of 1mg/feeding and 20mg/feeding, respectively. Animals were fed every other day for a total of 10 feedings: 5 times prior to disease induction (immunization on day 0) and then 5 times after immunization.
Disease was induced on day 0 by an intradermal injection of 8mg bovine - MBP and 3 mg H37Ra M. tuberculosis in FCA into the hind footpads, total injected volume between 0.1 and 0.15 ml per footpad. The animals were followed for clinical manifestations of EAE, a variety of serum and CSF immunological markers and spinal cord and cranial MRI's.
The Epics C flow cytometer was used to analyze both peripheral blood lymphocytes (PBL) and cerebral spinal fluid (CSF) collected from each monkey. The red blood cells were lysed and the remaining white blood cells (WBCs) were washed and stained using standard methods with appropriate reagents. Tables 3 and 4 below show the data from staining PBL and CSF WBCs from the three animals in this Example.

[5] = animal 18497, 1mg/dose, day +13
[6] = animal 18497, 1mg/dose, day +20
[7] = animal 18497, 1mg/dose, day +27
[8] = animal 18498, 20 mg/dose, day +6
[9] = animal 18498, 20 mg/dose, day +13
[10] = animal 18498, 20 mg/dose, day +20
[11] = animal 18498, 20 mg/dose, day +27
[12] = animal 18498, 20 mg/dose, day -1

Q: For glatiramer acetate, which “IFN-γ produced in response to GPBP stimulation” value [1] is on record?
A: The value was “lower than in control groups”.

Q: What about the “IL-2 produced in response to GPBP stimulation” value [1] of the same substance?
A: The value was “lower than in control groups”.

Q: What about the “suppression of EAE” value ([2]; mice fed 7 times 0.1 mg) of the same substance?
A: The value was “most effective dose”.

Q: And the “suppression of EAE” value ([2]; mice fed 7 times 0.25 mg)?
A: The value was “less effective”.

Q: And the “suppression of EAE” value ([2]; mice fed 7 times 0.5 mg)?
A: Its value is “completely inactive”.

Q: What about the “cytokine secretion response of T-cell line” value [3] of the same substance?
A: Its value is “secreted IL-2, some IL-10 and TGFβ but not TNFα or IL-4”.

Q: What about the Ratio ([4]; animal 18497, 1mg/dose, day +6) of the same substance?
A: The Ratio was 1.26.

Q: What about the Ratio [4, 5] of the same substance?
A: Its Ratio is 1.09.

Q: And the Ratio [4, 6]?
A: Its Ratio is 1.28.

Q: And the Ratio [4, 7]?
A: The Ratio was 1.3.

Q: What about the Ratio ([4]; animal 18497, 1mg/dose, day -1) of the same substance?
A: The Ratio was 0.97.

Q: What about the Ratio [4, 8] of the same substance?
A: The Ratio was 0.88.

Q: And the Ratio [4, 9]?
A: Its Ratio is 0.89.

Q: And the Ratio [4, 10]?
A: The Ratio was 0.47.

Q: And the Ratio [4, 11]?
A: Its Ratio is 0.71.

Q: What about the Ratio [4, 12] of the same substance?
A: Its Ratio is 0.93.

Q: And the “CD4+” value ([4]; animal 18497, 1mg/dose, day +6)?
A: The value was 39.

Q: And the “CD4+ CD45RA+” value ([4]; animal 18497, 1mg/dose, day +6)?
A: The value was 24.

Q: And the “CD8+” value ([4]; animal 18497, 1mg/dose, day +6)?
A: The value was 31.

Q: And the “CD8+ CD45RA+” value ([4]; animal 18497, 1mg/dose, day +6)?
A: Its value is 29.

Q: And the “CD4+” value [4, 5]?
A: Its value is 37.

Q: What about the “CD4+ CD45RA+” value [4, 5] of the same substance?
A: Its value is 16.

Q: And the “CD8+” value [4, 5]?
A: Its value is 34.

Q: And the “CD8+ CD45RA+” value [4, 5]?
A: The value was 29.

Q: What about the “CD4+” value [4, 6] of the same substance?
A: Its value is 41.

Q: And the “CD4+ CD45RA+” value [4, 6]?
A: The value was 18.

Q: And the “CD8+” value [4, 6]?
A: Its value is 32.

Q: And the “CD8+ CD45RA+” value [4, 6]?
A: The value was 25.

Q: What about the “CD4+” value [4, 7] of the same substance?
A: Its value is 35.

Q: And the “CD4+ CD45RA+” value [4, 7]?
A: Its value is 12.

Q: What about the “CD8+” value [4, 7] of the same substance?
A: Its value is 27.

Q: And the “CD8+ CD45RA+” value [4, 7]?
A: Its value is 18.

Q: And the “CD4+” value ([4]; animal 18497, 1mg/dose, day -1)?
A: Its value is 35.

Q: What about the “CD4+ CD45RA+” value ([4]; animal 18497, 1mg/dose, day -1) of the same substance?
A: Its value is 21.

Q: And the “CD8+” value ([4]; animal 18497, 1mg/dose, day -1)?
A: Its value is 36.

Q: What about the “CD8+ CD45RA+” value ([4]; animal 18497, 1mg/dose, day -1) of the same substance?
A: The value was 33.

Q: And the “CD4+” value [4, 8]?
A: The value was 37.

Q: What about the “CD4+ CD45RA+” value [4, 8] of the same substance?
A: Its value is 23.

Q: What about the “CD8+” value [4, 8] of the same substance?
A: Its value is 42.

Q: What about the “CD8+ CD45RA+” value [4, 8] of the same substance?
A: The value was 32.

Q: What about the “CD4+” value [4, 9] of the same substance?
A: Its value is 41.

Q: What about the “CD4+ CD45RA+” value [4, 9] of the same substance?
A: The value was 24.

Q: What about the “CD8+” value [4, 9] of the same substance?
A: Its value is 46.

Q: And the “CD8+ CD45RA+” value [4, 9]?
A: Its value is 37.

Q: What about the “CD4+” value [4, 10] of the same substance?
A: The value was 27.

Q: And the “CD4+ CD45RA+” value [4, 10]?
A: Its value is 12.

Q: And the “CD8+” value [4, 10]?
A: Its value is 57.

Q: What about the “CD8+ CD45RA+” value [4, 10] of the same substance?
A: The value was 41.

Q: And the “CD4+” value [4, 11]?
A: Its value is 37.

Q: And the “CD4+ CD45RA+” value [4, 11]?
A: Its value is 22.

Q: And the “CD8+” value [4, 11]?
A: The value was 52.

Q: What about the “CD8+ CD45RA+” value [4, 11] of the same substance?
A: Its value is 41.

Q: And the “CD4+” value [4, 12]?
A: The value was 37.

Q: And the “CD4+ CD45RA+” value [4, 12]?
A: The value was 23.

Q: What about the “CD8+” value [4, 12] of the same substance?
A: Its value is 40.

Q: And the “CD8+ CD45RA+” value [4, 12]?
A: The value was 32.
